Tested on: human G6PC promoter luciferase reporter in H4IIE rat hepatoma cells
Assay: H4IIE G6P-Luc reporter assay (luciferase under control of the G6PC promoter, clone C17-2)
Assay type: cell-based
Conditions: for Geometric mean of measured relative potency: pre-qualification study
Description: The H4IIE G6P-Luc C17-2 stable cell line was generated by stably expressing Luciferase reporter gene under the control of G6PC promoter via lentivirus technology. Briefly, the human G6PC promoter −1227/+57 sequence (SEQ ID NO: 1) was synthesized and subcloned into pLenti-NFAT-Luc vector to replace NFAT promoter. Lentivirus was generated comprising the construct and H4IIE parental cells were transduced with the lentivirus and screened with the selection antibiotic Hygromycin B. The resulting stable pool cells were validated by quantitative polymerase chain reaction (qPCR) and luciferase assay. The initial work of generating a H4IIE G6P-Luc stable cell line was outsourced to GenScript, Piscataway, N.J. USA. The stable cell pool was re-cloned in-house with limiting dilutions to identify additional clones. H4IIE_G6P-Luc C17-2 is a single clone stable cell line selected for its high assay window (difference in fluorescence detected in a sample containing 1 nM insulin versus fluorescence detected in a sample containing no insulin) and fast growth rate.
The H4IIE_G6P-Luc_C17-2 cells were cultured in Dulbecco's Modified Eagle's medium (DMEM), supplemented with 10% fetal bovine serum (FBS), 1× penicillin-streptomycin, and 0.3 mg/mL Hygromycin B. […] 25 μL insulin titration was aliquoted into the wells of a solid white 96-well tissue-culture treated assay plate. […] Afterwards, […] of ONE-GLO luciferase regent was added to the assay plate. After 10 minutes incubation at room temperature, luminescence signal was read on the EnVision plate reader (Perkin Elmer, Waltham, Mass. USA).

Substance | inhibition of luciferase reporter expression (clone C17-2, 7-hour treatment (FIG. 2A)) | inhibition of luciferase expression (clone C17-2, lower amounts of FBS in assay medium (FIG. 2C)) | inhibition of luciferase reporter expression (clone C17-2, overnight treatment (17-hours) (FIG. 2A)) | dose response curve (clone C17-2 after 29 cell passages (P29) (FIG. 2D)) | Geometric mean of measured relative potency (target relative potency 50% of reference material, N=12) | Geometric mean of measured relative potency (target relative potency 71% of reference material, N=12) | Geometric mean of measured relative potency (target relative potency 100% of reference material, N=24) | Geometric mean of measured relative potency (target relative potency 141% of reference material, N=12) | Geometric mean of measured relative potency (target relative potency 200% of reference material, N=12) | inhibition of luciferase reporter expression (top two clones (C17, C58), overnight treatment compared with seven-hour treatment (FIG. 1C))
Insulin glargine | mild inhibition | Less inhibition of luciferase expression | robust inhibition | well-formed dose response curve | 51 | 68 | 103 | 132 | 196 | 
recombinant human insulin: NOVOLIN (recombinant human insulin) purchased from Novo Nordisk |  |  |  |  |  |  |  |  |  | significantly better inhibition

— patent publication US20220026414A1, “CELL-BASED BIOIDENTITY TEST FOR INSULIN” (Merck Sharp & Dohme Corp., priority 2018, published 2022)
